Test results as given in patent US6452067B1, “Methods to assay for post-transcriptional suppression of gene expression” (DNA Plant Technology Corporation, priority 1997, dated 2002).

Experiments:
Type in all cases: cell-based
[1] = tested on: 1345 tomato (an LE-ACS-2 suppressant) leaf explants; assay: GUS assay of SSR pPO7110 in precultured leaf explants, 1345 tomato
Protocol: (§1) Two 4 mm discs were cut from each leaf and placed into a solution of Agrobacteria harboring either the suppression-sensitive GUS reporter construct pPO7110 or a control, nonsuppression-sensitive GUS construct, such as pPO7113, that lacks LE-ACS-2 sequences but is identical in every other respect. The Agrobacteria were previously grown in minimal medium containing sucrose and tetracycline at 1 mg/l to an apparent optical density of about 0.2 at 550 nm. Cultures at densities ranging from 0.1-0.4 were used, but the final density was always adjusted to 0.2 at 550 nm using growth medium. Discs were incubated with the Agrobacteria for 0.5-1.5 minutes, then removed and placed on sterile filter paper that was placed on top of tomato cocultivation medium (MS salts with IAA @ 0.05 mg/l, zeatin @ 1 mg/l and 100 μM acetosyringone and 1% gelrite).
(§2) The plates were incubated at 28° C. in the dark for 2.5 days whereupon the discs were removed and stained for GUS activity using 5-bromo-4-chloro-3-indolyl […] (X-Gluc). The discs were vacuum infiltrated for 2 minutes with the substrate solution containing 100 mM potassium phosphate pH 7.0, 10 mM EDTA, 2 mM potassium ferricyanide, 2 mM potassium ferrocyanide, 500 mg/1 X-Gluc, and 0.1% Triton X-100. Incubation was continued overnight (about 14-16 hr) at 37° C. and the plates were visually inspected for the presence of the insoluble blue precipitate a product of the GUS enzyme acting on the X-Gluc substrate. Tissues derived from nontransformed plants or transformed plants not displaying sense suppression will show the presence of a blue precipitate indicative of GUS activity while tissue derived from plants in the suppressed state will show no or comparatively little blue precipitate.
(§3) Strawberry plants which were continuously cultured in axenic conditions in vitro are used as a source of leaf explants. No ethanol dip or other form of surface sterilization was done on the strawberry leaves. […] This preculture step was carried out under lights at 28° C. for 4 days.
(§4) Three different concentrations of acetyosyringone were used in the preculture medium, 100 μM, 250 μM and 1000 μM.

[2] = tested on: control tomato (line 91103, nontransformed control) leaf explants; assay: GUS assay of SSR pPO7110 in precultured leaf explants, control tomato
Protocol: as §1, §2, §3, §4

strawberry leaf explants = assay: GUS assay in precultured leaf explants, strawberry
Protocol: as §1, §2, §3, §4

[3] = 1 mg/l hormone in preculture/cocultivation medium, 0-10 scale
[4] = vac 100AS (100 μM acetosyringone in preculture medium)
[5] = vac 250AS (250 μM acetosyringone)
[6] = vac 1000AS (1000 μM acetosyringone)

SMILES	GUS Assay Results, visual rating of GUS staining (mean in parentheses) [1, 3]	GUS Assay Results, visual rating of GUS staining (mean in parentheses) [2, 3]	GUS Assay Results, visual rating of GUS staining (mean in parentheses) (strawberry leaf explants; [3])	GUS Assay Results, visual rating of GUS staining (mean in parentheses) [1, 4]	GUS Assay Results, visual rating of GUS staining (mean in parentheses) [1, 5]	GUS Assay Results, visual rating of GUS staining (mean in parentheses) [1, 6]	GUS Assay Results, visual rating of GUS staining (mean in parentheses) [2, 4]	GUS Assay Results, visual rating of GUS staining (mean in parentheses) [2, 5]	GUS Assay Results, visual rating of GUS staining (mean in parentheses) [2, 6]	GUS Assay Results, visual rating of GUS staining (mean in parentheses) (strawberry leaf explants; [4])	GUS Assay Results, visual rating of GUS staining (mean in parentheses) (strawberry leaf explants; [5])	GUS Assay Results, visual rating of GUS staining (mean in parentheses) (strawberry leaf explants; [6])	GUS Assay Results, visual rating of GUS staining (mean in parentheses) ([1]; 3 mg/l NAA)	GUS Assay Results, visual rating of GUS staining (mean in parentheses) ([2]; 3 mg/l NAA)	GUS Assay Results, visual rating of GUS staining (mean in parentheses) (strawberry leaf explants; 3 mg/l NAA)
O=C(O)COc1ccc(Cl)cc1Cl [2,4-D]	2,2,3 (2.3)	3,4,7,8 (5.5)	0,0,0,0 (0)												
COc1cc(C(C)=O)cc(OC)c1O [AS, acetosyringone]				0,0,0,0 (0)	0,0,0,0 (0)	0,0,0,0 (0)	0,0,0,0 (0)	0,0,0,0 (0)	0,0,1,2 (0.8)	0,0,0,0 (0)	0,0,0,0 (0)	0,0,0,0 (0)			
O=C(O)Cc1c[nH]c2ccccc12 [IAA]	0,4,4,6 (4.7)	5,8,9,9 (7.8)	0,0,0,0 (0)												
O=C(O)Cc1cccc2ccccc12 [NAA]	0,0,0,1 (0.3)	0,1,3,3 (1.8)	0,0,0,0 (0)										0,1,2,4 (1.8)	3,6,6,6 (5.25)	0,0,0,1 (0.3)
